We go through 14 molecules from ChEMBL document CHEMBL1201862, “PubChem BioAssay data set” (2004).

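These data come from cells grown in 96-well plates and exposed to compound for 48 hours at five concentrations. GI50 = concentration required for 50% inhibition of growth.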 The source made the active and inactive calls. Cut-off read from the data, not from the text of the source: active = GI50 up to about 1.1 µM and inactive = higher.

Assay in all cases: growth of human tumour cells (NCI), 48 h
Assay [1] relates to CCRF-CEM.
Assay [2] has as its system EKVX.
Assay [3] deals with HCC 2998.
Assay [4] relates to HCT-15.
Assay [5] deals with HL-60.
Assay [6] deals with HOP-92.
The test system of assay [7] is NCI-H522.
Assay [8] concerns OVCAR-4.
In assay [9] the test system is OVCAR-5.
Assay [10] has as its system OVCAR-8.
In assay [11] the test system is SF-295.
Assay [12] relates to SW-620.
For assay [13], the system named is TK-10.
In assay [14] the test system is UACC-257.
The subject of assay [15] is UO-31.
Assay [16] deals with M14.

As to `O=C(CCN1CCCCC1CCO)Nc1ccc2c(c1)C(=O)c1ccc(NC(=O)CCN3CCCCC3CCO)cc1C2=O` (configuration not stated), the GI50 is 2.62 µM (inactive) in [1]; 7.41 µM (inactive) in assay [2]; 0.0418 µM (active) in assay [3]; 11.2 µM in assay [4]; 3.24 µM (inactive) in [5]; 13.2 µM (inactive) in assay [6]. In addition, the GI50 in [7] is 2.16 µM (inactive); in [8] it was 12.4 µM (inactive); in assay [9], 17.7 µM (inactive); in assay [10], 3.73 µM (inactive); in assay [11] it was 16.7 µM (inactive); in assay [12], 2.12 µM (inactive). Besides, the GI50 in assay [13] is 3.1 µM (inactive); in assay [14], 5.33 µM (inactive); in assay [15], > 100 µM (inactive).
On to `CC1(C)C2CCC13C(=O)C1OC3(C2)C2C(=O)N(c3ccccc3)C(=O)C12` (configuration not stated), for which the GI50 is > 100 µM (inactive) in assay [1]; > 100 µM (inactive) in [2]; > 100 µM (inactive) in [3]; above 100 µM in assay [4]; > 100 µM (inactive) in assay [5]; > 100 µM (inactive) in assay [16]. In addition, the GI50 in assay [7] is 20.1 µM (inactive); in assay [8], > 100 µM (inactive); in [9] it was > 100 µM (inactive); in assay [10], > 100 µM (inactive); in [11] it was > 100 µM (inactive); in [12], > 100 µM (inactive). Also, the GI50 in [13], in assay [14] and in [15] was > 100 µM (inactive) each time.
Take `N=C(c1ccccc1)N1CCCCC1`: the GI50 in assay [2] is > 100 µM (inactive); in [3], > 100 µM (inactive); in [5], > 100 µM (inactive); in [6], < 0.01 µM (active); in assay [16], > 100 µM (inactive); in assay [7], > 100 µM (inactive). In addition, the GI50 in [8], in assay [9], in assay [10], in [11], in [12] and in assay [13] was > 100 µM (inactive) each time. Also, the GI50 in assay [14] and in assay [15] was > 100 µM (inactive) throughout.
`CC(C)(C)c1ccccc1NS(=O)(=O)c1ccccc1`: the GI50 in assay [1] was 62.1 µM (inactive); in assay [2] it was > 100 µM (inactive); in assay [3], > 100 µM (inactive); in assay [4], above 100 µM; in [5], 36.9 µM (inactive); in assay [16], 96.2 µM (inactive). Further, the GI50 is 62.4 µM (inactive) in assay [8]; > 100 µM (inactive) in assay [9]; > 100 µM (inactive) in assay [10]; 86.1 µM (inactive) in assay [11]; > 100 µM (inactive) in assay [12]; > 100 µM (inactive) in [13]. The GI50 in [14] was 45.1 µM (inactive); in [15], 30.1 µM (inactive).
For `Nc1nc(-c2ccco2)cc(-c2ccco2)n1`, the GI50 was > 100 µM (inactive) in assay [1]; > 100 µM (inactive) in assay [2]; above 100 µM in assay [4]; > 100 µM (inactive) in [5]; > 100 µM (inactive) in assay [16]; > 100 µM (inactive) in [7]. Besides, the GI50 in assay [8], in assay [9], in [10], in assay [11], in [12] and in assay [13] was > 100 µM (inactive) throughout. In addition, the GI50 in [15] is 42.7 µM (inactive).
For the molecule `Cn1ncnc1CCc1ccccc1`, the GI50 in assay [1] was > 100 µM (inactive); in assay [4], above 100 µM; in [5], > 100 µM (inactive); in [6] it was > 100 µM (inactive); in [16] it was > 100 µM (inactive); in assay [7], > 100 µM (inactive). Moreover, the GI50 in [8], in [9], in assay [10], in assay [11], in assay [12] and in [13] was > 100 µM (inactive) each time. In addition, the GI50 in assay [14] and in assay [15] was > 100 µM (inactive) throughout.
Turning to `CCC(C)CNC1=C(NC(C)=O)C(=O)c2ccccc2C1=O` (configuration not stated), the GI50 in assay [1] was > 100 µM (inactive); in [2], > 100 µM (inactive); in assay [3], > 100 µM (inactive); in [4], above 100 µM; in [5], > 100 µM (inactive); in assay [16], > 100 µM (inactive). The GI50 was 78.2 µM (inactive) in assay [7]; > 100 µM (inactive) in [8]; > 100 µM (inactive) in assay [10]; > 100 µM (inactive) in [11]; > 100 µM (inactive) in assay [12]; > 100 µM (inactive) in assay [13]. For the same molecule, the GI50 in assay [14] and in assay [15] was > 100 µM (inactive) in each case.
Regarding `COc1ccc(O)cc1C=O`, the GI50 is 44 µM (inactive) in assay [1]; > 100 µM (inactive) in assay [2]; > 100 µM (inactive) in [3]; 37.6 µM in [4]; 21.4 µM (inactive) in assay [5]; > 100 µM (inactive) in assay [6]. The GI50 in assay [16] was 43.2 µM (inactive); in [8], > 100 µM (inactive); in [9], > 100 µM (inactive); in assay [10], > 100 µM (inactive); in assay [11] it was > 100 µM (inactive); in assay [12] it was 47.5 µM (inactive). The GI50 in assay [13] is > 100 µM (inactive); in assay [14] it was 48.1 µM (inactive); in assay [15] it was > 100 µM (inactive).
In the case of `N#CCCN(CCC#N)c1ccc(/C=C2\N=C(COc3ccc(Cl)cc3Cl)OC2=O)cc1`, the GI50 in assay [1] is > 100 µM (inactive); in [2], > 100 µM (inactive); in [3] it was > 100 µM (inactive); in [4], above 100 µM; in assay [5] it was > 100 µM (inactive); in assay [16], > 100 µM (inactive). For the same molecule, the GI50 is 29.9 µM (inactive) in [7]; > 100 µM (inactive) in [8]; > 100 µM (inactive) in assay [9]; > 100 µM (inactive) in assay [10]; > 100 µM (inactive) in assay [11]; > 100 µM (inactive) in assay [12]. Moreover, the GI50 in assay [13], in assay [14] and in assay [15] was > 100 µM (inactive) each time.
Turning to `CN(C)c1nnnn1-c1c(N)n(C)c(=O)n(C)c1=O`, the GI50 in assay [1] was > 100 µM (inactive); in [2], > 100 µM (inactive); in [3] it was > 100 µM (inactive); in [4] it was above 100 µM; in [5], > 100 µM (inactive); in assay [6], > 100 µM (inactive). Besides, the GI50 in [7], in [8], in assay [9], in assay [10], in assay [11] and in assay [12] was > 100 µM (inactive) in each case. Besides, the GI50 in [13], in assay [14] and in assay [15] was > 100 µM (inactive) in each case.
As to `CCOc1ccccc1/N=N/c1ccc2oc(=O)c(C(=O)Nc3cccc(C)c3)cc2c1`, the GI50 in assay [1] is 18.7 µM (inactive); in assay [2] it was 25.7 µM (inactive); in [3], 31.3 µM (inactive); in [4], 25.4 µM; in assay [5], 10.2 µM (inactive); in assay [16], 18.7 µM (inactive). In addition, the GI50 in assay [7] is 17.9 µM (inactive); in assay [8] it was 28.6 µM (inactive); in [9] it was > 100 µM (inactive); in assay [10], 24.7 µM (inactive); in assay [11], 29.6 µM (inactive); in assay [12], 31.3 µM (inactive). Also, the GI50 was 48.3 µM (inactive) in assay [13], 26.1 µM (inactive) in [14] and 16.6 µM (inactive) in [15].
Turning to `COC(=O)CC[C@]12C[C@]13CC[C@]1(C)C4C(C)C[C@]5(CC(C)C(=O)O5)OC4CC1(C)C3CCC2C(C)(C)O` (some centres not stated), the GI50 was > 100 µM (inactive) in assay [2]; 51.5 µM (inactive) in [3]; 50.9 µM in assay [4]; 23.3 µM (inactive) in assay [5]; 23.7 µM (inactive) in [6]; > 100 µM (inactive) in [16]. Besides, the GI50 was 62.1 µM (inactive) in assay [7]; 95.9 µM (inactive) in assay [8]; > 100 µM (inactive) in assay [9]; 41.7 µM (inactive) in [10]; > 100 µM (inactive) in assay [11]; 56 µM (inactive) in assay [12]. Besides, the results for the GI50 in assay [13], in assay [14] and in assay [15] were > 100 µM (inactive), 67.1 µM (inactive) and 59.2 µM (inactive), respectively.
With `C[C@]12CCC(=O)C[C@H]1CCC(O)[C@@H]2Br` (some centres not stated), the GI50 in assay [1] was > 100 µM (inactive); in [3], > 100 µM (inactive); in assay [4], above 100 µM; in assay [5] it was > 100 µM (inactive); in [6], > 100 µM (inactive); in assay [16], > 100 µM (inactive). The GI50 in assay [7], in assay [8], in assay [9], in assay [10], in assay [11] and in assay [12] was > 100 µM (inactive) throughout. Further, the GI50 in assay [13], in [14] and in [15] was > 100 µM (inactive) each time.
For `Oc1c2c(nc3cc4c(cc13)OCO4)-c1ccccc1CC2`, the GI50 is > 100 µM (inactive) in assay [1]; > 100 µM (inactive) in [2]; > 100 µM (inactive) in [3]; above 100 µM in [4]; > 100 µM (inactive) in [5]; > 100 µM (inactive) in assay [16]. The GI50 in assay [8], in [10], in assay [11], in assay [12], in [13] and in [14] was > 100 µM (inactive) in each case. Further, in assay [15], the GI50 was > 100 µM (inactive).
